# What was measured:
# [1] = biological target: Serine/threonine-protein kinase 25 (Homo sapiens) (UniProt O00506); experiment: Inhibition of wild-type human partial length YSK1 (V14 to H295 residues) expressed in bacterial expression system assessed as residual activity at 1 uM by Kinomescan method relative to control
# [2] = biological target: Tyrosine-protein kinase Mer (Homo sapiens) (UniProt Q12866); experiment: Inhibition of wild-type human partial length MERTK (R557 to L884 residues) expressed in bacterial expression system assessed as residual activity at 1 uM by Kinomescan method relative to control
# [3] = test system: Mast/stem cell growth factor receptor Kit (Homo sapiens), P10721 [D816V]; experiment: Inhibition of human partial length KIT D816V mutant (I571 to D952 residues) expressed in bacterial expression system assessed as residual activity at 1 uM by Kinomescan method relative to control
# [4] = biological target: Wee1-like protein kinase (Homo sapiens) (UniProt P30291); experiment: Inhibition of wild-type human partial length WEE1 (M291 to K575 residues) expressed in bacterial expression system assessed as residual activity at 1 uM by Kinomescan method relative to control
# [5] = biological target: Dual specificity protein kinase CLK1 (Homo sapiens) (UniProt P49759); experiment: Inhibition of wild-type human full length CLK1 (M1 to I484 residues) expressed in bacterial expression system assessed as residual activity at 1 uM by Kinomescan method relative to control
# [6] = biological target: 3-phosphoinositide-dependent protein kinase 1 (Homo sapiens) (UniProt O15530); experiment: Inhibition of wild-type human full length PDPK1 (M1 to Q556 residues) expressed in bacterial expression system assessed as residual activity at 1 uM by Kinomescan method relative to control
# [7] = test system: Receptor-type tyrosine-protein kinase FLT3 (Homo sapiens), P36888 [R834Q]; experiment: Inhibition of human partial length FLT3 R834Q mutant (V592 to Y969 residues) expressed in mammalian expression system assessed as residual activity at 1 uM by Kinomescan method relative to control
# [8] = test system: Tyrosine-protein kinase ABL1 (Homo sapiens), P00519 [T315I]; experiment: Inhibition of human non-phosphorylated ABL1 T315I mutant (S229 to K512 residues) expressed in mammalian expression system assessed as residual activity at 1 uM by Kinomescan method relative to control
# [9] = biological target: Cyclin-dependent kinase 19 (Homo sapiens) (UniProt Q9BWU1); experiment: Inhibition of wild-type human partial length CDK11 (M1 to N360 residues) expressed in bacterial expression system assessed as residual activity at 1 uM by Kinomescan method relative to control
# [10] = biological target: Serine/threonine-protein kinase RIO1 (Homo sapiens) (UniProt Q9BRS2); experiment: Inhibition of wild-type human full length RIOK1 (M1 to K568 residues) expressed in bacterial expression system assessed as residual activity at 1 uM by Kinomescan method relative to control
# [11] = biological target: Myosin-IIIb (Homo sapiens) (UniProt Q8WXR4); experiment: Inhibition of wild-type human partial length MYO3B (M1 to D357 residues) expressed in bacterial expression system assessed as residual activity at 1 uM by Kinomescan method relative to control
# [12] = test system: Receptor-type tyrosine-protein kinase FLT3 (Homo sapiens), P36888 [N841I]; experiment: Inhibition of human partial length FLT3 N841I mutant (V592 to Y969 residues) expressed in bacterial expression system assessed as residual activity at 1 uM by Kinomescan method relative to control
# [13] = biological target: Receptor-interacting serine/threonine-protein kinase 2 (Homo sapiens) (UniProt O43353); experiment: Inhibition of wild-type human partial length RIPK2 (M1 to K310 residues) expressed in bacterial expression system assessed as residual activity at 1 uM by Kinomescan method relative to control
# [14] = biological target: Serine/threonine-protein kinase pim-1 (Homo sapiens) (UniProt P11309); experiment: Inhibition of wild-type human partial length PIM1 (A15 to K313 residues) expressed in bacterial expression system assessed as residual activity at 1 uM by Kinomescan method relative to control
# [15] = biological target: Serine/threonine-protein kinase TAO2 (Homo sapiens) (UniProt Q9UL54); experiment: Inhibition of wild-type human partial length TAOK2 (M1 to A320 residues) expressed in mammalian expression system assessed as residual activity at 1 uM by Kinomescan method relative to control
# [16] = biological target: Cyclin-G-associated kinase (Homo sapiens) (UniProt O14976); experiment: Inhibition of wild-type human partial length GAK (G13 to Y338 residues) expressed in bacterial expression system assessed as residual activity at 1 uM by Kinomescan method relative to control
# [17] = test system: Phosphatidylinositol 4,5-bisphosphate 3-kinase catalytic subunit alpha isoform (Homo sapiens), P42336 [I800L]; experiment: Inhibition of human partial length PIK3CA I800L mutant (R108 to N1068 residues) expressed in mammalian expression system assessed as residual activity at 1 uM by Kinomescan method relative to control
# [18] = biological target: CDK4/Cyclin D3 (Homo sapiens) (UniProt P11802+P30281); experiment: Inhibition of wild-type human full length CDK4/cyclinD3 (M1 to E303 residues) expressed in mammalian expression system assessed as residual activity at 1 uM by Kinomescan method relative to control
# [19] = biological target: Cyclin-dependent kinase 13 (Homo sapiens) (UniProt Q14004); experiment: Inhibition of wild-type human partial length CDC2L5 (H675 to S1054 residues) expressed in mammalian expression system assessed as residual activity at 1 uM by Kinomescan method relative to control
# [20] = biological target: Interferon-induced, double-stranded RNA-activated protein kinase (Homo sapiens) (UniProt P19525); experiment: Inhibition of wild-type human partial length PRKR (F247 to C551 residues) expressed in bacterial expression system assessed as residual activity at 1 uM by Kinomescan method relative to control
# [21] = biological target: Serine/threonine-protein kinase 16 (Homo sapiens) (UniProt O75716); experiment: Inhibition of wild-type human partial length STK16 (G11 to I305 residues) expressed in bacterial expression system assessed as residual activity at 1 uM by Kinomescan method relative to control
# [22] = biological target: Hormonally up-regulated neu tumor-associated kinase (Homo sapiens) (UniProt P57058); experiment: Inhibition of wild-type human partial length HUNK (A31 to K354 residues) expressed in bacterial expression system assessed as residual activity at 1 uM by Kinomescan method relative to control
# Pfeiffer = experiment: Growth inhibition of human Pfeiffer cells; type: functional; details: Homo sapiens, Pfeiffer
# [23] = test system: Epidermal growth factor receptor (Homo sapiens), P00533 [G719C]; experiment: Inhibition of human partial length EGFR G719C mutant (R669 to V1011 residues) expressed in bacterial expression system assessed as residual activity at 1 uM by Kinomescan method relative to control
# [24] = test system: Epidermal growth factor receptor (Homo sapiens), P00533 [T790M]; experiment: Inhibition of human partial length EGFR T790M mutant (R669 to G1022 residues) expressed in mammalian expression system assessed as residual activity at 1 uM by Kinomescan method relative to control
compound,measurement,setting,value
C=CC(=O)Nc1cc(Nc2cc(-c3cccc(NC(=O)c4ccc(C(C)(C)C)cc4)c3C)cn(C)c2=O)ccc1C(=O)N1CCOCC1,Activity,[1],96%
same,Activity,[2],100%
same,Activity,[3],92%
same,Activity,[4],99%
same,Activity,[5],97%
same,Activity,[6],90%
same,Activity,[7],91%
same,Activity,[8],99%
same,Activity,[9],100%
same,Activity,[10],100%
same,Activity,[11],86%
same,Activity,[12],100%
same,Activity,[13],62%
same,Activity,[14],100%
same,Activity,[15],89%
same,Activity,[16],99%
same,Activity,[17],100%
same,Activity,[18],100%
same,Activity,[19],100%
same,Activity,[20],100%
same,Activity,[21],99%
same,Activity,[22],77%
same,GI50,Pfeiffer,4.5 µM
same,Activity,[23],100%
same,Activity,[24],100%

# — ChEMBL document CHEMBL4024706 (Eur J Med Chem, 2017)
